These results are taken from PubChem BioAssay AID1996.

≈ marks a conversion by molar mass, not a printed value.

The conditions of this data set: buffer; pH 7.4; 200.0 µM.
What is called kinetic solubility is solubility judged after dilution from a stock solution rather than from solid. On to `COc1ccc(C(CNC(=O)c2ccc(S(=O)(=O)N3CC(C)CC(C)C3)cc2)N(C)C)cc1` (stereo unspecified), for which the solubility (kinetic) was greater than 71 µg/mL. In the case of `C/C(=N\NC(=O)c1ccc(Cl)cc1)c1ccccn1`, the kinetic solubility was greater than 41.1 µg/mL. For `Cc1ccnc(N/C=C/C(=O)c2ccc(Br)cc2)c1` the value was less than 0.3 µg/mL; for `O=C(NCc1ccccc1)c1ccc(NC(=O)C2CCCO2)cc1` (stereo unspecified), greater than 48.7 µg/mL; for `O=C(Nc1ccon1)c1ccc(Br)s1`, 5.5 µg/mL (≈ 20.1 µM). As for `COC(=O)c1ccc(OCC2NCCc3cc(OC)c(OC)cc32)cc1` (stereo unspecified), the solubility (kinetic) is greater than 53.6 µg/mL. The figure for `COC(=O)CC1C(=O)NCCN1C(=O)c1ccc(Cl)cc1` (stereo unspecified) is greater than 46.6 µg/mL.

`C=CCNC(=S)NNC(=O)c1ccncc1`: the solubility (kinetic) was greater than 35.4 µg/mL. The figure for `CCOC(=O)c1c(C)[nH]c(C(=O)C(C)N2CCCC2)c1C` (stereo unspecified) is 37 µg/mL (≈ 127 µM); for `CSc1nc(-c2ccccc2)c(C#N)c(=O)[nH]1` it is greater than 36.5 µg/mL; for `O=C(CC1CC2CCC1C2)NCCc1ccc(Cl)cc1` (stereo unspecified) it is 29.7 µg/mL (≈ 102 µM).

Regarding `Cc1cc(C=C2C(=O)N(C)C(=S)N(C)C2=O)c(C)n1-c1cccnc1`, the solubility (kinetic) was determined as 13.9 µg/mL (≈ 39.2 µM).

Take `COc1ccc(OC)c2c1sc(=NC(=O)C1CCCCC1)n2C`: the solubility (kinetic) was less than 0.4 µg/mL.

Compound `Clc1nssc1=Nc1ccc(Br)cc1` showed a solubility (kinetic) of 1.4 µg/mL (≈ 4.55 µM). Turning to `CCCC1(CCC)NC(=O)N(CC(=O)Nc2ccc(Cl)c(S(=O)(=O)N3CCOCC3)c2)C1=O`, the solubility (kinetic) came out at 73.2 µg/mL (≈ 146 µM).

`CC1CN(C(=O)c2cc3cc([N+](=O)[O-])ccc3s2)CC(C)O1` (stereo unspecified) returned a solubility (kinetic) of 18.5 µg/mL (≈ 57.7 µM).

On to `CCc1ccc(N2C(=O)CC(N3CCN(c4ccccn4)CC3)C2=O)cc1` (stereo unspecified), for which the kinetic solubility is greater than 54.7 µg/mL. For the compound `O=C(CSc1ncnc2sccc12)Nc1ccccc1F`, the kinetic solubility was found to be 5.9 µg/mL (≈ 18.5 µM).

The compound `O=C1CSC(c2cccc(F)c2)N1c1ccccc1` (stereo unspecified) registered a solubility (kinetic) greater than 41 µg/mL. `CCOC(=O)C1CCC(CNCc2ccccc2C)CC1.Cl` (stereo unspecified) registered a kinetic solubility of 44.3 µg/mL. For `CN1CCCN=C1COC(=O)C(O)(c1ccccc1)C1CCCCC1.Cl` (stereo unspecified) the value was greater than 57.1 µg/mL. The figure for `Cc1ccc(CCNC(=O)C2CCC(=O)N2CCc2ccccc2)cc1` (stereo unspecified) is 47.1 µg/mL (≈ 134 µM); for `CC1(C)CC(=O)C2=C(C1)Nc1ccccc1S2` it is 3 µg/mL (≈ 12.2 µM); for `O=C(Nc1cccc(S(=O)(=O)NC2=NCCC2)c1)c1ccc(F)cc1` it is greater than 54.2 µg/mL.

With `CN(C)C(CNC(=O)c1cccs1)c1ccco1` (stereo unspecified), the kinetic solubility is greater than 39.7 µg/mL.

`Oc1c(I)cc(Cl)c2cccnc12` gave a kinetic solubility of 0.8 µg/mL (≈ 2.62 µM). For `Cc1ccc(S(=O)(=O)NCCC(=O)NC2CCCCC2)cc1` the value was greater than 48.7 µg/mL.

`N#C/C(=C/c1cccs1)c1ccccn1` had a kinetic solubility of 7 µg/mL (≈ 33 µM).

Turning to `COc1cc(OC)c(C(=O)O/N=C(\N)c2ccccc2)cc1OC`, the solubility (kinetic) is 45.7 µg/mL (≈ 138 µM). For `O=[N+]([O-])c1ccc(N2CCCCC2)cc1` the value was 19.9 µg/mL (≈ 96.5 µM). The figure for `COC(=O)Nc1ccc(S(=O)(=O)N2CCCC(C(=O)O)C2)cc1` (stereo unspecified) is 50.4 µg/mL (≈ 147 µM).

`O=[N+]([O-])c1ccc2cn[nH]c2c1` registered a kinetic solubility greater than 24.5 µg/mL. `O=C(NCc1ccco1)C(=O)c1cn(CC(=O)N2CCCCCC2)c2ccccc12` gave a solubility (kinetic) of 14.3 µg/mL (≈ 35.1 µM). The figure for `Cc1ccc(OCCn2ccnc2)c([N+](=O)[O-])c1` is 26.8 µg/mL (≈ 108 µM).

`Cc1cccc(NC(=O)Nc2ccc(OCc3ccccc3)cc2)n1` returned a kinetic solubility of less than 0.2 µg/mL. For the compound `CC(=O)c1c(C)[nH]c(C(=O)Nc2ccc(F)cc2F)c1C`, the solubility (kinetic) was determined as 20.6 µg/mL (≈ 70.5 µM).

The compound `N#Cc1c(Cl)nsc1NCCN1CCOCC1` returned a solubility (kinetic) greater than 40.9 µg/mL.

Consider `Cn1cccc1/C=C(\C#N)C(N)=S`, for which the solubility (kinetic) worked out at 28.1 µg/mL (≈ 147 µM). The figure for `O=C(CNC(=O)c1ccccc1Cl)NCCc1cccs1` is greater than 48.4 µg/mL. The figure for `O=C(CCc1ccccc1)NCCc1nc2ccccc2[nH]1` is greater than 44 µg/mL. For `Cc1ccc(N2C(=O)c3cccc([N+](=O)[O-])c3C2=O)cc1C` the value was 23.3 µg/mL (≈ 78.6 µM); for `C=CCOc1ccc(CNCc2cccnc2)cc1.Cl`, greater than 43.6 µg/mL. In turn, `C/C(=N\O)c1ccc2c(c1)OCCO2` had a solubility (kinetic) greater than 29 µg/mL. The compound `Cc1cc2cc(C#N)c(SCC(=O)Nc3nonc3C)nc2cc1C` registered a solubility (kinetic) of 0.3 µg/mL (≈ 0.849 µM). For `CC(C)Nc1nc(Cl)nc(NC2CCCCC2)n1` the value was 2.7 µg/mL (≈ 10 µM); for `COc1ccc(N(C(C)C(=O)N2CCCC2)S(C)(=O)=O)cc1` (stereo unspecified), greater than 49 µg/mL.

On to `CC1CCCCC12NC(=O)N(CC(=O)N1CCc3ccccc31)C2=O` (stereo unspecified), for which the kinetic solubility was found to be 3.7 µg/mL (≈ 10.8 µM). The figure for `CC(C(=O)NC1CCCCC1)N1C(=O)C2C3C=CC(C3)C2C1=O` (stereo unspecified) is greater than 47.5 µg/mL; for `CCCN1CCN(CCNC(=O)Nc2ccccc2Cl)CC1` it is greater than 48.7 µg/mL; for `CC(C)OCC(O)CN1CCC(Cc2ccccc2)CC1.Cl` (stereo unspecified) it is greater than 49.2 µg/mL. For `CC1CCCN(C(=O)C2CCN(S(=O)(=O)c3ccccc3)CC2)C1` (stereo unspecified) the value was greater than 52.6 µg/mL; for `CCc1nc2ccccc2c(C(=O)OCC(=O)NC2CC2)c1C`, greater than 46.9 µg/mL; for `COc1ccccc1CCNC(C)CCc1ccc(O)cc1` (stereo unspecified), 33.2 µg/mL (≈ 111 µM).

The compound `COc1ccc(NC(=O)COc2ccccc2)cc1Cl` displayed a solubility (kinetic) of 34 µg/mL (≈ 117 µM). As to `COc1ccc(NC(=O)CN2C(=O)CSC2=O)cc1`, the solubility (kinetic) is greater than 42 µg/mL. The figure for `N/C(CC(=O)Nc1ccc(F)cc1F)=N\OC(=O)c1cccs1` is 16.3 µg/mL (≈ 48 µM); for `CC(=O)Nc1ccc2nc(NC(=O)c3cccnc3)sc2c1` it is 7.4 µg/mL (≈ 23.7 µM); for `CCN(CC)S(=O)(=O)c1ccc(Cl)c(NC2=NCCCCC2)c1` it is 32.9 µg/mL (≈ 91.9 µM). For `CCCCOC(=O)c1sc2nc(C)cc(C)c2c1N` the value was 0.6 µg/mL (≈ 2.16 µM). Take `O=C(O)C1=C(C(=O)Nc2cc(C(F)(F)F)ccc2Cl)CCCC1`: the kinetic solubility was 12.5 µg/mL (≈ 35.9 µM).

In turn, `CC1CCN(C(=O)CCNC(=O)c2ccccc2Cl)CC1` displayed a kinetic solubility of 41.1 µg/mL (≈ 133 µM). For `O=[N+]([O-])c1ccc(Oc2ncccn2)cc1` the value was 28.4 µg/mL (≈ 131 µM); for `CCc1nn(C)c(N)c1C.Cl`, greater than 26.3 µg/mL; for `CC(C)(C)NCC(O)COc1cccc2[nH]c(=O)[nH]c12.Cl` (stereo unspecified), greater than 47.4 µg/mL. The figure for `O=C1CC2(CCN(C(=O)c3ccc([N+](=O)[O-])cc3)CC2)Oc2ccccc21` is 3.2 µg/mL (≈ 8.73 µM); for `O=C(NCCC(=O)N1CCN(c2ccccn2)CC1)c1ccc([N+](=O)[O-])cc1` it is greater than 57.5 µg/mL. For `CCc1noc(C)c1C(=O)Nc1ccccc1C(C)(C)C` the value was 39 µg/mL (≈ 136 µM); for `Cc1cc2oc(=O)cc(CN3CCCCC3C)c2cc1Cl` (stereo unspecified), 4.5 µg/mL (≈ 14.7 µM).

With `Cn1cccc1C(=O)N1CCc2ccccc2C1`, the solubility (kinetic) is greater than 36 µg/mL.

`COc1ccc2c(C=O)cn(C)c2c1` yielded a kinetic solubility greater than 28.4 µg/mL. For `CCC(=O)Nc1cc(C(F)(F)F)ccc1N1CCCC1` the value was 34 µg/mL (≈ 119 µM).

Take `CCn1c(=O)c([N+](=O)[O-])c(N2CCSCC2)c2ccccc21`: the kinetic solubility was determined as 14.8 µg/mL (≈ 46.3 µM). For `Cc1ccc(-c2noc(CCCC(=O)NC3CCCCC3)n2)cc1` the value was 7.8 µg/mL (≈ 23.8 µM); for `Cc1ccnc(NC(=O)COC(=O)C23CC4CC(CC(C4)C2)C3)n1`, 8.7 µg/mL (≈ 26.4 µM); for `CCOCCCNC(=O)CN1CCN(Cc2ccc(Cl)cc2)C1=O`, 46.6 µg/mL (≈ 132 µM). The figure for `O=S(=O)(Nc1cccc(-c2nc3cccnc3s2)c1)c1cccs1` is 0.9 µg/mL (≈ 2.41 µM). The figure for `CN1CCN(C(=O)C23CC4CC(C)(CC(C)(C4)C2)C3)CC1.Cl` is 47.8 µg/mL; for `Cn1c(Cl)c(/C=N/OC(=O)C2CC2)c2ccccc21` it is 2.7 µg/mL (≈ 9.76 µM). In turn, `CCC(C)NC(=O)Cn1c(=O)sc2ccccc21` (stereo unspecified) gave a kinetic solubility of 33.6 µg/mL (≈ 127 µM). In the case of `COc1ccccc1C1CCN(Cc2ccccc2)CC1`, the solubility (kinetic) was found to be 31.1 µg/mL (≈ 111 µM). For `COc1ccccc1C1CC(=O)Nc2cc(C)c(C)cc21` (stereo unspecified) the value was less than 0.6 µg/mL; for `CCCn1cnc2cc(NCc3ccccc3O)ccc21`, 28.3 µg/mL (≈ 101 µM); for `Cc1cccc(N2C(=O)C3C4C=CC(C5CC45)C3C2=O)n1` (stereo unspecified), 36.5 µg/mL (≈ 130 µM). For the compound `Cc1ccc(C(=O)OCC(=O)NC(C)c2ccccc2)cc1C` (stereo unspecified), the solubility (kinetic) was 1.1 µg/mL (≈ 3.53 µM). The compound `COC(=O)Cn1cc(C(=O)c2ccccc2F)c2ccccc21` showed a kinetic solubility of 32.4 µg/mL (≈ 104 µM).

`CCC(C)NC(=O)Cn1nc(C(F)(F)F)c2c1CCC2` (stereo unspecified) showed a solubility (kinetic) greater than 43.4 µg/mL. Take `CN(C(=S)Nc1cccnc1)c1ccc(O)cc1`: the kinetic solubility was 29 µg/mL (≈ 112 µM). As to `COc1ccc(/C(N)=N/OC(=O)CCC2CCCC2)cc1OC`, the solubility (kinetic) was found to be 8 µg/mL (≈ 25 µM).

With `CCOP(=O)(OCC)C(NC(=O)Nc1ccc(C)cc1)C(N)=O` (stereo unspecified), the solubility (kinetic) is greater than 51.5 µg/mL. The figure for `CN(C)c1cccc(C(=O)OCC(=O)N(C)c2ccccc2)c1` is greater than 46.9 µg/mL; for `COc1cccc(/C=C/C(=O)OCC(=O)NCCCc2ccccc2)c1OC` it is 5.6 µg/mL (≈ 14.6 µM).

With `COc1ccc(CNC(=O)C2CC(C)=CCC2C(=O)O)cc1` (stereo unspecified), the kinetic solubility is greater than 45.5 µg/mL. The figure for `CCN(CC)S(=O)(=O)c1ccc(NC(=O)c2cc(=O)[nH]c3ccccc23)cc1` is 3.9 µg/mL (≈ 9.76 µM); for `Nc1c(Cl)ncnc1NCc1cccnc1` it is greater than 35.4 µg/mL. For `O=C(Nc1ccccc1)OCc1cncs1` the value was greater than 35.1 µg/mL; for `Cc1ccc2nc(-c3ccsc3)c(NC3CCCC3)n2c1`, 1.6 µg/mL (≈ 5.38 µM). For `Cc1cc(-c2nc(-c3ccc(C(C)(C)C)cc3)no2)no1` the value was less than 0.2 µg/mL; for `CC(C)N1CC(C(=O)Nc2ccc(Cl)c([N+](=O)[O-])c2)CC1=O` (stereo unspecified), 45.4 µg/mL (≈ 139 µM); for `Cc1c(O)c2ccccc2n(-c2ccccc2)c1=O`, greater than 37.7 µg/mL. Consider `CSc1nsc(SC)c1C(=O)O`, for which the kinetic solubility was greater than 33.2 µg/mL.

`COc1ccc(/C=C/C(=O)N2CCNC(=O)C2)c(OC)c1`: the kinetic solubility was determined as 41.3 µg/mL (≈ 142 µM). For `Cc1c(C(=O)NC2CCCCC2)oc2ccccc12` the value was 5.3 µg/mL (≈ 20.6 µM); for `CC(C)C(OC(=O)c1ccco1)C(=O)NC1CCCC1` (stereo unspecified), greater than 41.9 µg/mL. For the compound `O=C(CCCC(=O)c1ccccc1)NCc1ccccc1`, the solubility (kinetic) is greater than 42.2 µg/mL.

For `Cc1cccc(-c2nc(-c3ccncc3)no2)c1`, the kinetic solubility is 3.4 µg/mL (≈ 14.3 µM).

The compound `CN1C/C(=C/c2ccncc2)C(=O)/C(=C/c2ccncc2)C1` yielded a solubility (kinetic) of 40.9 µg/mL (≈ 140 µM).
